The text below walks through data of ChEMBL document CHEMBL6177971, “Iterative Optimization Yields Stapled Peptides with Superior Pharmacokinetics and Potency for Renal Fibrosis Treatment” (J Med Chem, 2025).

The structures appear in SMILES notation. Activity calls are given as the source filed them. The rule behind the calls is not given here. *1 amine or outer side, *2 acyl side, *3 side chain or, on linkers, in order; H or OH if unused. Where a SMILES comes first, the peptide text is derived from it. [ ]: non-standard residue; d: D form. X1 = CCCCC[C@](C)(N[*:1])C(=O)[*:2]; S5 = C=CCCC[C@](C)(N)C(=O)O

Data set [1] has as its system Mus musculus. Nature of the data set: Anti-fibrotic activity in male C57BL/6J mouse model of unilateral ureteral obstruction assessed as decrease in fibronectin level administered intraperitoneally every day for 7 days by Western blot analysis. The settings on record: route ip, time 7.0 day. The class given is functional, organism-based. For orientation: A western blot detects proteins with antibodies after separation by electrophoresis.

In data set [2] the test system is Mus musculus. Nature of the data set: Anti-fibrotic activity in male C57BL/6J mouse model of unilateral ureteral obstruction assessed as increase in E-cadherin level administered intraperitoneally every day for 7 days by Western blot analysis. It counts as functional, organism-based. Conditions: route ip, time 7.0 day.
A short description of data set [3]: Toxicity in male C57BL/6J mouse model of unilateral ureteral obstruction assessed as change in animal body weight administered intraperitoneally every day for 7 days. The settings on record: in vivo, ip, 168 h, time 7 day.
The nature of data set [4]: Half life of compound. It counts as physicochemical.
Data set [5] in a line: Retention time of compound. The class given is physicochemical.
In data set [6] the test system is Mus musculus. Put plainly: Anti-fibrotic activity in male C57BL/6J mouse model of unilateral ureteral obstruction assessed as decrease in alpha-SMA level administered intraperitoneally every day for 7 days by Western blot analysis. It counts as functional, organism-based. Conditions: route ip, time 7.0 day.
Data set [7] is described as follows: Toxicity in male C57BL/6J mouse model of unilateral ureteral obstruction assessed as change in animal behaviour administered intraperitoneally every day for 7 days. Conditions: in vivo, ip, 168 h, time 7 day.
For data set [8], the system named is HK-2. Put plainly: Inhibition of TGF-beta1-induced EMT in human HK-2 cells assessed as decrease in collagen I level at 10 uM incubated for 24 hrs by Western blot analysis. It counts as functional, cell-based.
Data set [9] in a line: Toxicity in male C57BL/6J mouse model of unilateral ureteral obstruction assessed as change in animal appearance administered intraperitoneally every day for 7 days. Conditions: in vivo, ip, 168 h, time 7 day.
In data set [10] the test system is HK-2. Put plainly: Inhibition of TGF-beta1-induced EMT in human HK-2 cells assessed as decrease in alpha-SMA level at 10 uM incubated for 24 hrs by Western blot analysis. The class given is functional, cell-based.
Data set [11] can be described thus: Half life in C57BL/6J mouse at 2.5 mg/kg, iv measured for 3 to 60 mins by HPLC/MS analysis. It counts as ADME, organism-based. Conditions: in vivo, time 3-60 min.
Data set [12] relates to HK-2. Put plainly: Inhibition of TGF-beta1-induced EMT in human HK-2 cells assessed as decrease in fibronectin level at 10 uM incubated for 24 hrs by Western blot analysis. The class given is functional, cell-based.
The test system of data set [13] is Mus musculus. Nature of the data set: Anti-fibrotic activity in male C57BL/6J mouse model of unilateral ureteral obstruction assessed as decrease in vimentin level administered intraperitoneally every day for 7 days by Western blot analysis. The settings on record: route ip, time 7.0 day. It counts as functional, organism-based.
Data set [14] concerns Mus musculus. Put plainly: Anti-fibrotic activity in C57BL/6J mouse model of unilateral ureteral obstruction assessed as decrease in renal fibrosis at 20 mg/kg, ip administered every day for 7 days by H and E staining based analysis. The class given is functional, organism-based. The settings on record: time 7.0 day.
Data set [15] has as its system Mus musculus. Nature of the data set: Anti-fibrotic activity in C57BL/6J mouse model of unilateral ureteral obstruction assessed as decrease in renal inflammation at 20 mg/kg, ip administered every day for 7 days by H and E staining based analysis. It counts as functional, organism-based. The settings on record: time 7.0 day.
Data set [16] deals with NIH3T3. Put plainly: Inhibition of TGF-beta1-induced EMT in mouse NIH3T3 cells assessed as decrease in fibronectin level at 10 uM incubated for 48 hrs by Western blot analysis. The class given is functional, cell-based.
Data set [17] is described as follows: Stability in C57BL/6J mouse serum assessed as proteolysis resistance measured up to 72 hrs by HPLC analysis. The class given is ADME, cell-free.
The subject of data set [18] is NIH3T3. Nature of the data set: Inhibition of TGF-beta1-induced EMT in mouse NIH3T3 cells assessed as decrease in alpha-SMA level at 10 uM incubated for 48 hrs by Western blot analysis. The class given is functional, cell-based.
For data set [19], the system named is NIH3T3. Nature of the data set: Cytotoxicity against mouse NIH3T3 cells assessed as inhibition of cell viability at 10 to 40 uM incubated for 48 hrs by CCK8 assay. The settings on record: nih3t3, 48 h, dose 10-40 µM. The class given is toxicity, cell-based. On the technique in general: Formazan colour is commonly taken as a measure of viable cells.

Broadly, the half-life is how long it takes for the measured level to halve. Lower therefore signals rapid decline. Turning to `C=CCCC[C@](C)(NC(=O)[C@H](Cc1c[nH]cn1)NC(=O)[C@@H](N)CC(=O)O)C(=O)N[C@@H](CC(N)=O)C(=O)N1CCC[C@H]1C(=O)N[C@@H](CCC(N)=O)C(=O)N[C@H](C(=O)N[C@@H](CCCNC(=N)N)C(N)=O)[C@@H](C)CC` (H-DH[S5]NPQIR-NH2), the result in data set [1], in [2], in data set [6] and in data set [13] was Active. Besides, the Activity result in [3], in [7] and in data set [9] was “Non-toxic” in each case. Besides, the half-life is 1.64 h in data set [4] and 0.19 h in data set [11]. This compound also yielded a Retention_time in data set [5] of 9.036 min. Also, the inhibition result in [8], in data set [10] and in data set [12] was “Active” throughout.

For the compound `C[C@H](CS)C(=O)N1CCC[C@H]1C(=O)O`, the outcome in data set [14] and in data set [15] was Active.

Turning to `C=CCCC[C@](C)(NC(=O)[C@@H](C)NC(=O)[C@H](CCC(N)=O)NC(=O)[C@@H]1CCCN1C(=O)[C@](C)(CCCC=C)NC(=O)[C@H](CC(N)=O)NC(=O)[C@H](Cc1c[nH]cn1)NC(=O)[C@@H](CC(=O)O)NC(=O)CCCCCCCCCCC)C(N)=O`, the half-life in data set [4] is 656 h. The inhibition result in data set [16] and in data set [18] was “Active” in each case. The Stability result in data set [17] was “Stable”. Moreover, the Activity result in [19] is on record as “Toxic”.

Consider `C=CCCC[C@](C)(NC(=O)[C@H](CCC(N)=O)NC(=O)[C@@H]1CCCN1C(=O)[C@@H](CC(N)=O)NC(=O)[C@](C)(CCCC=C)NC(=O)[C@H](Cc1c[nH]cn1)NC(=O)[C@@H](CC(=O)O)NC(=O)CCCCCCCCCCC)C(=O)N[C@@H](CCCNC(=N)N)C(N)=O`, for which the half-life in [4] was 208 h. In addition, the inhibition entry in [16] and in data set [18] was “Active” each time. Besides, in [17], the Stability entry is listed as “Stable”. Moreover, the Activity result in data set [19] was “Toxic”.

`CCCCC[C@](C)(NC(=O)[C@H](Cc1c[nH]cn1)NC(=O)[C@@H](N)CC(=O)O)C(=O)N[C@@H](CC(N)=O)C(=O)N1CCC[C@H]1C(=O)N[C@@H](CCC(N)=O)C(=O)N[C@H](C(=O)N[C@@H](CCCNC(=N)N)C(N)=O)[C@@H](C)CC` (H-DH[X1]NPQIR-NH2): the result in data set [1], in data set [2], in data set [6] and in data set [13] was Active. Also, the Activity result in data set [3], in data set [7] and in data set [9] was “Non-toxic” in each case. This compound displayed a Retention_time in data set [5] of 10.009 min. Moreover, the inhibition result in data set [8], in data set [10] and in [12] was “Active” in each case.
